From PubChem BioAssay AID200 (DTP/NCI, 2004)
Several values for one entry are separate records, joined by “and”; a condition that tells them apart may be missing. Equal entries are not always repeated. Toxic doses and inconclusive results are not listed.

System: B6C3F1 mice, B16 melanoma ip, median survival T/C
Test: NCI In Vivo Anticancer Drug Screen. Data for tumor model B16 Melanoma (intraperitoneal) in B6C3F1 mice
Conditions: endpoint: median survival time, higher = longer survival
Procedure, shortened: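 Mice bearing transplanted tumor were dosed with compound or vehicle, and survival was recorded. Activity is expressed as the treated-group measurement (T) divided by the vehicle control measurement (C).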

[1] = dose: 25.0 mg/kg/injection, schedule: Q01DX009 (ip), vehicle: saline with Tween-80
[2] = dose: 50.0 mg/kg/injection, schedule: Q01DX009 (ip), vehicle: saline with Tween-80
[3] = dose: 100.0 mg/kg/injection, schedule: Q01DX009 (ip), vehicle: saline with Tween-80
[4] = dose: 12.0 mg/kg/injection, schedule: Q01DX009 (ip), vehicle: saline with Tween-80
[5] = dose: 12.5 mg/kg/injection, schedule: Q01DX009 (ip), vehicle: saline with Tween-80
[6] = dose: 200.0 mg/kg/injection, schedule: Q01DX009 (ip), vehicle: saline with Tween-80
[7] = dose: 12.5 mg/kg/injection, schedule: Q01DX009 (ip), vehicle: saline
[8] = dose: 25.0 mg/kg/injection, schedule: Q01DX009 (ip), vehicle: saline
[9] = dose: 50.0 mg/kg/injection, schedule: Q01DX009 (ip), vehicle: saline
[10] = dose: 100.0 mg/kg/injection, schedule: Q01DX009 (ip), vehicle: saline
[11] = dose: 200.0 mg/kg/injection, schedule: Q01DX009 (ip), vehicle: saline
[12] = dose: 400.0 mg/kg/injection, schedule: Q01DX009 (ip), vehicle: saline
[13] = dose: 12.5 mg/kg/injection, schedule: Q01DX009 (ip), vehicle: Klucel (hydroxypropylcellulose) (HPC)
[14] = dose: 400.0 mg/kg/injection, schedule: Q01DX009 (ip), vehicle: saline with Tween-80
[15] = dose: 6.25 mg/kg/injection, schedule: Q01DX009 (ip), vehicle: saline
[16] = dose: 6.25 mg/kg/injection, schedule: Q01DX009 (ip), vehicle: Klucel (hydroxypropylcellulose) (HPC)

Compound: COc1cccc2c1C(=O)c1c(O)c3c(c(O)c1C2=O)C[C@@](O)(C(O)CO)C[C@@H]3OC1CC(N(Cc2ccccc2)Cc2ccccc2)C(O)C(C)O1 (stereo partly drawn)
- T/C (dose: 6.25 mg/kg/injection, schedule: Q01DX001 (ip), vehicle: water): 111 % of control
- T/C (dose: 50.0 mg/kg/injection, schedule: Q01DX001 (ip), vehicle: water): 166 % of control
- T/C (dose: 50.0 mg/kg/injection, schedule: Q01DX009 (ip), vehicle: water): 160 % of control
- T/C (dose: 100.0 mg/kg/injection, schedule: Q01DX001 (ip), vehicle: water): 196 % of control
- T/C (dose: 200.0 mg/kg/injection, schedule: Q01DX001 (ip), vehicle: water): 232 % of control

Compound: COc1ccc2c(c1O)-c1cccc3c1[C@@H](C2)N(CCCl)CC3
- T/C (dose: 1.0 mg/kg/injection, schedule: Q01DX009 (ip), vehicle: Klucel (hydroxypropylcellulose) (HPC)): 91 % of control and 100 % of control
- T/C (dose: 2.0 mg/kg/injection, schedule: Q01DX009 (ip), vehicle: Klucel (hydroxypropylcellulose) (HPC)): 100 % of control
- T/C (dose: 4.0 mg/kg/injection, schedule: Q01DX009 (ip), vehicle: Klucel (hydroxypropylcellulose) (HPC)): 97 % of control and 106 % of control
- T/C (dose: 8.0 mg/kg/injection, schedule: Q01DX009 (ip), vehicle: Klucel (hydroxypropylcellulose) (HPC)): 98 % of control and 102 % of control

Compound: O=C(C/C(=N\C(=S)Nc1cc(C(F)(F)F)ccc1Cl)NO)N1CCCC1
- T/C [1]: 123 % of control
- T/C [2]: 116 % of control
- T/C [3]: 94 % of control

Compound: O=C(NC(CO)C(=O)O)OCc1ccccc1 (stereo not drawn)
- T/C [1]: 97 % of control
- T/C [2]: 98 % of control
- T/C [3]: 87 % of control and 102 % of control

Compound: Nc1ncnc2c1cnn2Cc1ccc(Cl)cc1
- T/C [2]: 107 % of control
- T/C [3]: 100 % of control

Compound: CCCCCC1c2cc(O)ccc2OC1N1CCOCC1 (stereo not drawn)
- T/C (dose: 6.0 mg/kg/injection, schedule: Q01DX009 (ip), vehicle: saline with Tween-80): 90 % of control
- T/C [4]: 103 % of control
- T/C [5]: 106 % of control
- T/C [1]: 96 % of control and 107 % of control
- T/C [2]: 98 % of control and 102 % of control
- T/C [3]: 94 % of control and 106 % of control
- T/C [6]: 96 % of control and 97 % of control

Compound: Cc1ccccc1CN1C2=NCCN2C(=O)C2=C1CCN(S(=O)(=O)c1ccc(Cl)c(S(N)(=O)=O)c1)C2
- T/C [7]: 101 % of control
- T/C [8]: 101 % of control
- T/C [9]: 95 % of control
- T/C [10]: 90 % of control
- T/C [11]: 92 % of control
- T/C [12]: 90 % of control

Compound: C(C#CCN1CCOCC1)#CCN1CCOCC1
- T/C [13]: 102 % of control
- T/C [5]: 105 % of control
- T/C (dose: 25.0 mg/kg/injection, schedule: Q01DX009 (ip), vehicle: Klucel (hydroxypropylcellulose) (HPC)): 110 % of control
- T/C [1]: 106 % of control
- T/C (dose: 50.0 mg/kg/injection, schedule: Q01DX009 (ip), vehicle: Klucel (hydroxypropylcellulose) (HPC)): 105 % of control
- T/C [2]: 106 % of control
- T/C (dose: 100.0 mg/kg/injection, schedule: Q01DX009 (ip), vehicle: Klucel (hydroxypropylcellulose) (HPC)): 121 % of control
- T/C [3]: 111 % of control
- T/C (dose: 200.0 mg/kg/injection, schedule: Q01DX009 (ip), vehicle: Klucel (hydroxypropylcellulose) (HPC)): 107 % of control
- T/C [6]: 98 % of control
- T/C (dose: 400.0 mg/kg/injection, schedule: Q01DX009 (ip), vehicle: Klucel (hydroxypropylcellulose) (HPC)): 91 % of control
- T/C [14]: 86 % of control

Compound: CCN(CC)CCNc1ccc(C)c2sc3ccccc3c(=O)c12
- T/C [15]: 103 % of control
- T/C [7]: 100 % of control
- T/C [8]: 104 % of control
- T/C [9]: 104 % of control
- T/C [10]: 118 % of control

Compound: NCCC(=O)NC(Cc1cnc[nH]1)C(=O)O (stereo not drawn)
- T/C [9]: 102 % of control
- T/C [10]: 104 % of control
- T/C [11]: 103 % of control
- T/C [12]: 104 % of control

Compound: O=C1C2CC(CN3CCCCC23)C2CCCCN12 (stereo not drawn)
- T/C (dose: 37.5 mg/kg/injection, schedule: Q01DX009 (ip), vehicle: saline): 104 % of control
- T/C (dose: 75.0 mg/kg/injection, schedule: Q01DX009 (ip), vehicle: saline): 105 % of control
- T/C (dose: 150.0 mg/kg/injection, schedule: Q01DX009 (ip), vehicle: saline): 97 % of control

Compound: CCOc1cc2c(cc1C(C)c1ccc(OC)cc1)OCO2 (stereo not drawn)
- T/C (dose: 12.5 mg/kg/injection, schedule: Q01DX009 (ip), vehicle: distilled water + alcohol): 116 % of control
- T/C (dose: 25.0 mg/kg/injection, schedule: Q01DX009 (ip), vehicle: distilled water + alcohol): 113 % of control
- T/C (dose: 50.0 mg/kg/injection, schedule: Q01DX009 (ip), vehicle: distilled water + alcohol): 102 % of control
- T/C (dose: 100.0 mg/kg/injection, schedule: Q01DX009 (ip), vehicle: distilled water + alcohol): 98 % of control
- T/C (dose: 200.0 mg/kg/injection, schedule: Q01DX009 (ip), vehicle: distilled water + alcohol): 108 % of control

Compound: CCOC(=O)c1[nH]c2cccc3c2c1CC(Br)C3=O (stereo not drawn)
- T/C [4]: 98 % of control
- T/C [1]: 93 % of control
- T/C [2]: 100 % of control

Compound: O=C/C(Cl)=C(/Cl)C(=O)O
- T/C (dose: 1.25 mg/kg/injection, schedule: Q01DX009 (ip), vehicle: saline with Tween-80): 99 % of control
- T/C (dose: 2.5 mg/kg/injection, schedule: Q01DX009 (ip), vehicle: saline with Tween-80): 86 % of control
- T/C (dose: 5.0 mg/kg/injection, schedule: Q01DX009 (ip), vehicle: saline with Tween-80): 89 % of control
- T/C (dose: 10.0 mg/kg/injection, schedule: Q01DX009 (ip), vehicle: saline with Tween-80): 92 % of control
- T/C (dose: 20.0 mg/kg/injection, schedule: Q01DX009 (ip), vehicle: saline with Tween-80): 102 % of control

Compound: CC1=C2C(=CO[C@H](C)[C@H]2C)C(=O)C(C(=O)O)=C1O
- T/C [16]: 105 % of control
- T/C [15]: 108 % of control
- T/C [13]: 102 % of control
- T/C [7]: 100 % of control
- T/C [8]: 100 % of control
- T/C [9]: 98 % of control

Compound: C=CCNC(=O)c1ccccc1SC(C)=O
- T/C (dose: 50.0 mg/kg/injection, schedule: Q01DX009 (ip), vehicle: saline + Tween-80 + alcohol): 101 % of control
- T/C (dose: 100.0 mg/kg/injection, schedule: Q01DX009 (ip), vehicle: saline + Tween-80 + alcohol): 112 % of control and 103 % of control
- T/C [3]: 91 % of control
- T/C (dose: 200.0 mg/kg/injection, schedule: Q01DX009 (ip), vehicle: saline + Tween-80 + alcohol): 119 % of control
- T/C [6]: 104 % of control
- T/C (dose: 400.0 mg/kg/injection, schedule: Q01DX009 (ip), vehicle: saline + Tween-80 + alcohol): 114 % of control
- T/C [14]: 116 % of control

Compound: CNC[C@@H](O)c1ccc(O)c(O)c1
- T/C (dose: 0.75 mg/kg/injection, schedule: Q01DX009 (ip), vehicle: suspension in saline): 114 % of control
- T/C (dose: 1.5 mg/kg/injection, schedule: Q01DX009 (ip), vehicle: suspension in saline): 115 % of control
- T/C (dose: 3.0 mg/kg/injection, schedule: Q01DX009 (ip), vehicle: suspension in saline): 99 % of control

Compound: N=C(N)c1nn(C2OC(CO)C(O)C2O)c2nc[nH]c(=O)c12 (stereo not drawn)
- T/C (dose: 2.25 mg/kg/injection, schedule: Q01DX009 (ip), vehicle: Klucel (hydroxypropylcellulose) (HPC)): 92 % of control and 102 % of control
- T/C (dose: 3.12 mg/kg/injection, schedule: Q01DX009 (ip), vehicle: Klucel + Tween-80): 99 % of control
- T/C (dose: 3.75 mg/kg/injection, schedule: Q01DX009 (ip), vehicle: Klucel (hydroxypropylcellulose) (HPC)): 112 % of control and 101 % of control
- T/C [16]: 112 % of control and 90 % of control
- T/C (dose: 10.42 mg/kg/injection, schedule: Q01DX009 (ip), vehicle: Klucel (hydroxypropylcellulose) (HPC)): 92 % of control
- T/C (dose: 17.36 mg/kg/injection, schedule: Q01DX009 (ip), vehicle: Klucel (hydroxypropylcellulose) (HPC)): 110 % of control and 98 % of control

Compound: COc1oc(C2C/C(=C/C(C)=C/C(C)=C/C(C)=C/c3ccc([N+](=O)[O-])cc3)CO2)c(C)c(=O)c1C (stereo not drawn)
- T/C (dose: 0.25 mg/kg/injection, schedule: Q01DX009 (ip), vehicle: saline with Tween-80): 96 % of control
- T/C (dose: 0.5 mg/kg/injection, schedule: Q01DX009 (ip), vehicle: saline with Tween-80): 98 % of control
- T/C (dose: 1.0 mg/kg/injection, schedule: Q01DX009 (ip), vehicle: saline with Tween-80): 99 % of control
- T/C (dose: 2.0 mg/kg/injection, schedule: Q01DX009 (ip), vehicle: saline with Tween-80): 103 % of control
